Laboratory results as given in ChEMBL document CHEMBL1777683, “Identification of plasmepsin inhibitors as selective anti-malarial agents using ligand based drug design” (Bioorg Med Chem Lett, 2011).

Columns and labels:
Plasmepsin II = Plasmepsin II (Plasmodium falciparum, UniProt P46925); assay: Inhibition of Plasmodium falciparum plasmepsin 2 using DABCYL-Glu-Arg-Nle-Phe-Leu- Ser-Phe-Pro-EDANS fluorogenic substrate by fluorogenic assay
[1] = Inhibition of Plasmodium falciparum plasmepsin 4 using DABCYL-Glu-Arg-Nle-Phe-Leu- Ser-Phe-Pro-EDANS fluorogenic substrate by fluorogenic assay
Plasmodium falciparum [2] = assay: Antimalarial activity against Plasmodium falciparum 3D7 infected in RBC assessed as parasite-specific lactate dehydrogenase release; type: functional, organism-based
[3] = biological target: Cathepsin D (Homo sapiens) (UniProt P07339); assay: Inhibition of human liver Cathepsin D using KPIEF(nF)RL chromogenic substrate at 5 uM by absorbance assay
Cathepsin D (Homo sapiens), sequence (P07339 65-162 limits assumed): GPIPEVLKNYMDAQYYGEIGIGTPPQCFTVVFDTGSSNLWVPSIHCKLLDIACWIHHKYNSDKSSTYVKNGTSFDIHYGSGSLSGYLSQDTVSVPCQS
Cathepsin D (Homo sapiens), sequence (P07339 169-412 limits assumed): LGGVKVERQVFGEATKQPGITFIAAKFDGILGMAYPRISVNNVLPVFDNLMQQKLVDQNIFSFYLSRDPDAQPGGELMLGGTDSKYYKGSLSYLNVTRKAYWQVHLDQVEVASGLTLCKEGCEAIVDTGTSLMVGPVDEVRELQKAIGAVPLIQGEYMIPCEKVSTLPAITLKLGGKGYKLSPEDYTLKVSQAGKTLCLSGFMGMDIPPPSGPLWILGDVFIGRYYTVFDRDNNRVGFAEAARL

Plasmodium falciparum [4] = assay: Antimalarial activity against Plasmodium falciparum 3D7 infected in RBC assessed as parasite-specific lactate dehydrogenase release at 16 uM; type: functional
[5] = biological target: Plasmepsin II (Plasmodium falciparum) (UniProt P46925); assay: Inhibition of Plasmodium falciparum plasmepsin 2 using DABCYL-Glu-Arg-Nle-Phe-Leu- Ser-Phe-Pro-EDANS fluorogenic substrate at 5 uM by fluorogenic assay
Plasmepsin II (Plasmodium falciparum), sequence (P46925 125-453 limits assumed): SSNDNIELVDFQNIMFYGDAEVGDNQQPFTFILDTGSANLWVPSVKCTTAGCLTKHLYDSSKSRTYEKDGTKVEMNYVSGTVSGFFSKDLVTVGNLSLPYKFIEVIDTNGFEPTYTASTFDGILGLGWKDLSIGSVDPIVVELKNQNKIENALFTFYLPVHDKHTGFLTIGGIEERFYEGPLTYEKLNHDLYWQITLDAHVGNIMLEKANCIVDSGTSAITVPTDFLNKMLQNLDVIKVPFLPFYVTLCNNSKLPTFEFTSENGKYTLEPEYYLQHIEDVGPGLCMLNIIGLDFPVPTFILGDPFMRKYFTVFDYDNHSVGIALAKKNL

Plasmodium falciparum [6] = assay: Inhibition of Plasmodium falciparum plasmepsin 4 using DABCYL-Glu-Arg-Nle-Phe-Leu- Ser-Phe-Pro-EDANS fluorogenic substrate at 5 uM by fluorogenic assay

Plasmepsin II, sequence (P46925 whole entry): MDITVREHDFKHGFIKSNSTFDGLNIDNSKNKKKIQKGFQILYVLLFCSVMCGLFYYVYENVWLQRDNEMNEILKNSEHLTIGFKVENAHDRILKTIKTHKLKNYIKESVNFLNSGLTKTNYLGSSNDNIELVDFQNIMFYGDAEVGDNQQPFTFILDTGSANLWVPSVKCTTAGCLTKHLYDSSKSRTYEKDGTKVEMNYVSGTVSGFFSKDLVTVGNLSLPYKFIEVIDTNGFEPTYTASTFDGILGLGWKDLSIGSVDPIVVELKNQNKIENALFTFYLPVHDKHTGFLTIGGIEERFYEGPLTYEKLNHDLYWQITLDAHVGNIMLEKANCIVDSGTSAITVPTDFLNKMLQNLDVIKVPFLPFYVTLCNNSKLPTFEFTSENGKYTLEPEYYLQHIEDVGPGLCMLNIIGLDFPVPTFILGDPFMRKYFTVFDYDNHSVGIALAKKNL

Structure (SMILES) | IC50 (Plasmepsin II) [µM] | Ki (Plasmepsin II) [µM] | IC50 [1] [µM] | IC50 (Plasmodium falciparum [2]) [µM] | inhibition [3] [%] | inhibition [5] [%] | inhibition (Plasmodium falciparum [6]) [%] | Ki [1] [µM] | inhibition at 16 µM (Plasmodium falciparum [4]) [%]
CCOC(=O)c1ccc(/N=C2\S/C(=C\c3ccc(C(C)(C)C)cc3)C(=O)N2c2ccc(C(=O)OCC)cc2)cc1 | 6.1 | 4 | 3.7 | 5 | 15 | – | – | 3.23 | –
COc1ccc(-c2cc(-c3ccc(Cl)cc3)c(C#N)c(S[C@H](C)C(=O)Nc3ccc(C(C)=O)cc3)n2)cc1 | – | – | – | – | – | – | – | – | 32
COC(=O)CCC(=O)N(CCN(Cc1ccccc1)C(=O)CCC(=O)OC)Cc1ccccc1 | 10 | 7 | 9 | 5.24 | 35 | – | – | – | –
COc1ccc([C@@H](C(=O)NC2CCCC2)N(C(=O)c2snc(C(N)=O)c2N)c2ccc(OC)cc2)cc1 | – | – | – | 25 | – | – | – | – | –
CCOc1cccc(-c2cc(C(=O)N/N=C/c3ccc(OC)c(CN4CCSCC4)c3)c3ccccc3n2)c1 | – | – | – | 40 | – | – | – | – | –
Cc1ccc(NC(=S)N(Cc2ccc3c(c2)OCO3)Cc2cc3cccc(C)c3[nH]c2=O)cc1 | 7 | 4.6 | 6.3 | 9.6 | 35 | – | – | 5.5 | –
O=C(NCCNC(=O)/C(=C\c1ccco1)NC(=O)c1ccccc1)/C(=C/c1ccco1)NC(=O)c1ccccc1 | – | – | – | 12 | – | – | – | – | –
CCCCOc1ccc(-c2cc(C(=O)N/N=C(\C=C\c3ccc4c(c3)OCO4)c3ccc(OC)cc3)c3ccccc3n2)cc1 | – | – | – | 24 | – | – | – | – | –

More lines, main results first:

IC50 (Plasmepsin II) [µM] | Ki (Plasmepsin II) [µM] | IC50 [1] [µM] | IC50 (Plasmodium falciparum [2]) [µM] | inhibition [3] [%] | inhibition [5] [%] | inhibition (Plasmodium falciparum [6]) [%] | Structure (SMILES) | Ki [1] [µM] | inhibition at 16 µM (Plasmodium falciparum [4]) [%]
– | – | – | 1.24 | – | – | – | CCCCc1ccc(-c2cc(C(=O)Nc3scc(-c4cccnc4)c3C(=O)OC)c3cc(Br)ccc3n2)cc1 | – | –
11.5 | 8 | 15 | 3.7 | 12 | – | – | CCCCOc1cccc(-c2cc(C(=O)N/N=C(\C)c3cccc(NC(=O)C(C)(C)C)c3)c3ccccc3n2)c1 | 13 | –
2.3 | 1.6 | 6.2 | 2.3 | 12 | – | – | COc1ccc(Cl)cc1NC(=O)c1sc2nc(-c3ccccc3)cc(-c3ccc(OCc4ccccc4)c(OC)c3)c2c1N | 5.4 | –
21.3 | 10.6 | 26 | 2.21 | 12 | – | – | CC(C)CCNC(=O)[C@H](c1c[nH]c2ccccc12)N(C(=O)c1snc(C(N)=O)c1N)c1ccc2c(c1)OCO2 | 20 | –
2.4 | 1.2 | 0.62 | 2.18 | 10 | – | – | CCN(CC)c1ccc(/C=N/NC(=O)CSc2nc3ccccc3n2Cc2ccc(Cl)cc2)cc1 | 0.47 | –
2.5 | 2 | 2.6 | 4.5 | 20 | – | – | CCN(CC)C(=O)c1sc(NC(=O)c2cc(-c3cccc(C)c3)nc3ccccc23)c(C(=O)OC)c1C | 2.5 | –
– | – | – | 0.35 | 20 | 30 | 20 | CCOc1ccc(N(C(=O)c2snc(C(=O)NC3CCCCC3)c2N)[C@H](C(=O)NCCc2ccccc2)c2ccc(OC)cc2)cc1 | – | –
